In data set [1] the target is T1, α4β1 integrin (Homo sapiens, UniProt P05556+P13612).
T1 construct: adding a volume of 80 μL consisted of 1.3×10^5 Molt4 cells; endogenous in cells; host or cells: Molt4 T-cell leukemia cells
As to the kind of experiment: Molt4 T-cell leukemia adhesion assay (inhibition of α4β1-mediated cell adhesion to CS-1 peptide). The format is cell-based. The source says:
α4β1 integrins are cell surface heterodimeric glycoproteins that mediate cell adhesion to vascular cell adhesion molecule-1 (VCAM-1 or CD 106) as well as to extracellular matrix (ECM) protein fibronectin (FN). Integrin expression and function depend on cell activation. The dynamic changes in integrin affinity, avidity, or activation state are implicated in cell migration, survival and apoptosis, cancer development and metastasis. Binding affinities (IC50s) of the ligands were studied in a Molt4 T-cell leukemia adhesion assay by inhibiting the α4β1-mediated cell adhesion to CS-1 peptide ([…]), which is the binding motif of fibronectin to α4β1 receptor.
General Procedure for Cell Adhesion Assay:
96-well plates were prepared by coating them with 5 μg/mL neutravidin for a one-hour period, followed by adding […] biotin-conjugated CS-1 peptide. The wells were then blocked with 1% […] in phosphate buffer saline (PBS) solution, followed by adding a volume of 80 μL consisted of 1.3×10^5 Molt4 cells, and finally different dilutions of tested ligands in binding buffer (1 mM Mn^2+ TBS), were added to each well. To allow binding, the plates were incubated for 30 min at 37° C., followed by washing of unbound cells with PBS. Bound cells were fixed with 10% formalin buffered in phosphate for 30 min and stained with 0.5% crystal violet. After washing and drying at room temperature, the dye was dissolved in 1% SDS, and absorbance at 570 nm was measured using a 96-well TECAN OD UV/Vis spectrophotometer. Inhibition was calculated as a percentage resulting from the concentration-dependent curve.

For data set [2] the following is noted: compound by itself; cited from earlier work.
For data set [3] the following is noted: xenograft model, optical and radioimaging; cited from earlier work.

SMILES strings stand for the structures. Read-outs that look alike come from different tables or passages of the source.

T1 sequence (P13612 34-1032): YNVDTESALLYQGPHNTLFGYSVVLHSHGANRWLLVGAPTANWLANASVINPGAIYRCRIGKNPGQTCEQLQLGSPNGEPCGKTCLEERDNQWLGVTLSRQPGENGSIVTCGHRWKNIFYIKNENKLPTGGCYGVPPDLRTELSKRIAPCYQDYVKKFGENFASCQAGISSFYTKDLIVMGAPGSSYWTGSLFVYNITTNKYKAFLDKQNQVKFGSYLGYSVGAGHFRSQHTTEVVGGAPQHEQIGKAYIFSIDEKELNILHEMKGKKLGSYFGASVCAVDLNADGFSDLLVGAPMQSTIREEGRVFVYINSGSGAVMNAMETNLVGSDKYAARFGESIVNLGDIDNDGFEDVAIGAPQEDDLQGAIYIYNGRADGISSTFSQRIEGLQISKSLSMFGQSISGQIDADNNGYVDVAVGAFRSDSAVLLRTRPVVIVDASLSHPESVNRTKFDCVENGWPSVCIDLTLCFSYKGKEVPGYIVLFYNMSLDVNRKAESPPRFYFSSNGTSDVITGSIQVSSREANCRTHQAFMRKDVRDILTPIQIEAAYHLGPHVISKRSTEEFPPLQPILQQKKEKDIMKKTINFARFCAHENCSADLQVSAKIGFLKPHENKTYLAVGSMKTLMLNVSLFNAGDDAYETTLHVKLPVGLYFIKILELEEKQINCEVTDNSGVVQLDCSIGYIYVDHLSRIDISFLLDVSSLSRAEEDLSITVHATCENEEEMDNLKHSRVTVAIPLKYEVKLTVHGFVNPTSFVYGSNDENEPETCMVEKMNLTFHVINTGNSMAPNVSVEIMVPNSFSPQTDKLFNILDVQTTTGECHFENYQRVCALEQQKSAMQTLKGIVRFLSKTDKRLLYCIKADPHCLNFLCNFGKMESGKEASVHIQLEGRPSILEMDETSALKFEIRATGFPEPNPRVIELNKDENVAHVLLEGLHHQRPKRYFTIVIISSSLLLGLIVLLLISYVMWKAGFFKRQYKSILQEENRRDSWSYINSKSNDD
T1 sequence (P05556 21-798): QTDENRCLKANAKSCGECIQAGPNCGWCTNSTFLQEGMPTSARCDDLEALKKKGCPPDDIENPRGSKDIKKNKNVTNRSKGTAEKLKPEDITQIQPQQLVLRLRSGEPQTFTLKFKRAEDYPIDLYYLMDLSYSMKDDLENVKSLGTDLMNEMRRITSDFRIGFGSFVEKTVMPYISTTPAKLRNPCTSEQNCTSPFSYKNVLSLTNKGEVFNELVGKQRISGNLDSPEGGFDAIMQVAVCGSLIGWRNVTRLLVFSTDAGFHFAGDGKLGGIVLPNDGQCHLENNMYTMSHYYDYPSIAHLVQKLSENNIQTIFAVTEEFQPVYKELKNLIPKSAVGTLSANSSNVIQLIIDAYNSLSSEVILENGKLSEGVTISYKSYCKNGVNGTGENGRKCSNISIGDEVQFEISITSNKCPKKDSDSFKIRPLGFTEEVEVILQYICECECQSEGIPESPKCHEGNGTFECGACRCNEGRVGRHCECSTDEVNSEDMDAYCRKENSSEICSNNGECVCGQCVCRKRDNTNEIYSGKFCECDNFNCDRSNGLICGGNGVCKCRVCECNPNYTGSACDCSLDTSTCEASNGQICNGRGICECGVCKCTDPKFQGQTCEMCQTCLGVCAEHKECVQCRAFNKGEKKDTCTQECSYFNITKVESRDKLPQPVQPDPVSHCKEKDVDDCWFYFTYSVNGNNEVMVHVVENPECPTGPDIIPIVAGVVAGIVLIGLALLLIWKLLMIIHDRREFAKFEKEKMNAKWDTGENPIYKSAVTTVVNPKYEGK

For `NC(=O)C1(NC(=O)[C@H](CCCC(=O)O)NC(=O)[C@H](CCCCNC(=O)/C=C/c2cccnc2)NC(=O)c2ccc(Nc3nc4cc(Br)ccc4[nH]3)cc2)CCCCC1` [KLCA12], the IC50 (usually the concentration that inhibits the measured activity by half) in data set [1] (Molt4 cells, adhesion to biotin-conjugated CS-1 peptide, 1 mM Mn2+ TBS, 30 min at 37° C.) came out at 0.115 nM.

In data set [1], `NC(=O)C1(NC(=O)C(CCCC(=O)O)NC(=O)C(CCCCNC(=O)C=Cc2cccnc2)NC(=O)Cc2ccc(Nc3nc4ccccc4s3)cc2)CCCCC1` (stereo not drawn) [KLCA14] gave an IC50 of 0.053 nM.

`Cc1cccc2oc(Nc3ccc(CC(=O)NC(CCCCNC(=O)C=Cc4cccnc4)C(=O)NC(CCCC(=O)O)C(=O)NC4(C(N)=O)CCCCC4)cc3)nc12` (stereo not drawn) [KLCA15] displayed a 50% inhibitory concentration (IC50) in data set [1] of 4 nM.

For `NC(=O)C1(NC(=O)C(CCCC(=O)O)NC(=O)C(CCCCNC(=O)C=Cc2cccnc2)NC(=O)Cc2ccc(Nc3nc4ccccc4o3)cc2)CCCCC1` (stereo not drawn) [KLCA16], the IC50 in data set [1] was determined as 2 nM.

For `Cc1ccccc1NC(=O)Nc1ccc(CC(=O)N[C@@H](CCCCNC(=O)/C=C/c2cccnc2)C(=O)N[C@@H](CCCC(=O)O)C(=O)NC2(C(N)=O)CCCCC2)cc1` [LLP2A], the water solubility entry in data set [2] is “not very water soluble”. Moreover, the “uptake in the kidneys” value in data set [3] was “rather high uptake in the kidneys”.

The values above are taken from US8486370B2, “Heterocyclic ligands for integrin imaging and therapy” (The Regents of the University of California, priority 2006, dated 2013).
